Experimental data taken from patent publication US9689042B2, “Use of glycolytic pathways for inhibiting or measuring oncogenic signaling” (The Regents of the University of California, priority 2012, dated 2017).
Entries after “also recorded” stand apart in the source; their conditions may differ. d = 2'-deoxy (DNA); r = 2'-OH (RNA)

Tests used:
[1] = system: EGFR, β1 integrin, Akt, MEK, GLUT3, glycolytic enzymes in T4-2 cells; experiment: Western blots of signaling intermediates, GLUT3 and metabolic enzymes in 3D lrECM cultures of T4-2 cells; format: cell-based, human; conditions: 3D lrECM; for recovery of β1 integrin expression and Akt activity by supplementation: T4-2 cells reverted by IA 20 μM or 1.75 mM glucose, PEP 0.5 mM, ESCA 20 μM
Procedure: Cell colonies were separated from lrECM gels by shaking in PBS containing 5 mM EDTA and the proteinase inhibitor cocktail set I (Calbiochem) on ice for 30 min. Cells were lysed in lysis buffer (1% NP-40, 1% deoxycholate, 2% SDS, 150 mM NaCl, 20 mM Tris-HCl [pH 7.4] plus 5 mM EDTA and protease inhibitor cocktail set I and phosphatase inhibitor cocktail set I [Calbiochem]) and sonicated three times for 30 sec each. Proteins were separated by SDS-PAGE, transferred to nitrocellulose membranes, and probed with antibodies against the following proteins: phosphorylated MEK, MEK, phosphorylated Akt, Akt, phosphorylated AMPK, AMPK, p70S6K, phosphorylated p70S6K, CHOP, EPAC1 (Cell Signaling), β1 integrin, EGFR, activated EGFR, HIF-1α, (Chemicon International), PFKP (Abgent), GAPDH, GLUT3 (GeneTex), LDHA, PDHE1α, DLAT, DLD, HIF-3α, Rap1, sAC, EPAC2, OGT, Lamin A/C (Santa Cruz Biotechnology), Aldolase (Polysciences), GFPT (ProteinTech Group), HIF-2α (Abcam), and HA-tag (Covance). After probing with HRP-conjugated secondary antibodies, blots were developed using SuperSignal West Femto chemiluminescence reagent (Pierce Biotechnology). Images were captured using Fluor Chem 8900 imager (Alpha Innotech).

Rap1 = experiment: Measurement of Rap1 activity (GST-RalGDS-RBD pull-down) in T4-2 cells; format: cell-based, human; conditions: T4-2 cells treated with IA 20 μM or 1.75 mM glucose; PEP 0.5 mM, ESCA 20 μM
Procedure: Rap1 activity was measured as described previously (Itoh et al., 2007). Briefly, cell colonies were extracted from lrECM as described above, and lysed in lysis buffer (50 mM Tris-HCl [pH 7.4], 500 mM NaCl, 1% NP40, 2.5 mM MgCl2, 10% glycerol, 10 μg/ml aprotinin and 10 μg/ml leupeptin) at 4° C. for 30 min. Lysates were cleared by centrifugation at 15,000×g at 4° C. for 15 min. Supernatants (containing 300 μg protein in 300 μl) were incubated with 15 μg of GST-tagged RalGDS-RBD fusion protein immobilized on Glutathione Sepharose 4B beads (GE Healthcare), at 4° C. for 1 hr. Beads were washed trice in lysis buffer and resuspended in Laemmli buffer. Samples were separated by SDS-PAGE, followed by transfer to polyvinylidene fluoride membranes (0.2 μm pore) and immunoblotting using anti-Rap1 antibody.

T4-2 cells [2] = conditions: for rescue of the malignant (disorganized) phenotype by supplementation: T4-2 cells reverted by IA 20 μM or 1.75 mM glucose, PEP 0.5 mM, pyruvate; for rescue of the malignant (disorganized) phenotype by supplementation / phenotypic reversion of the malignant phenotype / basal polarity / organized acinar structures / growth / proliferation (cell numbers at the colony mid-section, EdU incorporation): 3D lrECM; for phenotypic reversion of the malignant phenotype: 2DG 4 mM, IA 20 μM, OX 50 mM, Azs 20 μM, DON 20 μM, BADGP 5 mM, TM 10 ng/ml, OGM 4 ng/ml, Rapa 0.01-1.0 μM; for basal polarity / organized acinar structures / growth / proliferation (cell numbers at the colony mid-section, EdU incorporation): same inhibitor concentrations as E1
Procedure: (§1) HMT-3522 cells were cultured on tissue culture plastic (2D) and in 3D lrECM gels with H14 medium, a 1:1 mix of DMEM/F12 (UCSF Cell Culture Facility) supplemented with 250 ng/ml insulin, 10 μg/ml transferrin, 2.6 ng/ml sodium selenite, 0.1 nM β-estradiol, 1.4 μM hydrocortisone and 5 μg/ml prolactin but no serum. S1 cells were additionally supplemented with 10 ng/ml EGF. MDA-MB-231 and HCC70 cells were cultured in DMEM and RPMI1640, respectively, and were supplemented with 10% fetal bovine serum (FBS).
(§2) For 3D lrECM cultures, S1 and T4-2 cells were seeded at 840,000 and 600,000 cells per cm3 respectively in lrECM gel (Cultrex), overlaid with H14 medium. MDA-MB-231 and HCC70 cells were seeded at 625,000 cell per cm3 and overlaid with H14 medium supplemented with 1% FBS. Cells were used for each assay after 10 days, unless otherwise indicated.
Pieces of lrECM gel containing cell colonies were suspended in approximately the same volume of phosphate buffered saline (PBS) and directly spread on glass slides. After brief air-drying, colonies were fixed with 3.7% paraformaldehyde (PFA) in PBS at room temperature (RT) for 10 min, washed with PBS containing 0.1 mM glycine, and permeabilized with 1:1 methanol/acetone at −20° C. for 10 min. After blocking with IF buffer (0.2% Triton X-100, 0.1% BSA [radioimmunoassay grade], 0.05% Tween 20, 7.7 mM NaN3 in PBS) containing 10% goat serum and 1% goat F(ab′)2 anti-mouse immunoglobulin G (IgG; Caltag) at RT for 30 min, colonies were stained with anti-α6 integrin antibody (Chemicon International) at 4° C. overnight. Colonies were washed extensively with IF buffer, and stained with Alexa 568-labeled anti-rat IgG antibody at RT for 2 hr. Colonies were washed with IF buffer again, and nuclei were stained with DAPI at RT for 10 min. Slides were briefly washed with PBS and mounted with 50% glycerol in PBS.
To test whether increased glucose metabolism itself is required for oncogenic signaling events, we utilized 3D lrECM cultures of HMT-3522, a breast cancer progression series which includes non-malignant (S1) and malignant (T4-2) human breast epithelial cells from the same individual (Briand et al., 1987; Petersen et al., 1992; Rizki et al., 2008). Using these cells, we have described the involvement and reciprocity of multiple signaling pathways including EGFR, β1 integrin, PI3K-Akt and MEK-ERK in oncogenic events (Beliveau et al., 2010; Bissell et al., 2005). […] We thus used this “phenotypic reversion” of the cancer cells as an assay to examine how the signaling integration plan of the breast acini could involve glucose metabolism.

T4-2 cells [3] = experiment: Mitochondrial activity (MitoTracker oxidation) assay in 3D lrECM; format: cell-based, human
Procedure: (§3) Cells suspended in 200 μl lrECM were seeded in 12 well glass-bottom plates (14 mm diameter; MatTek Corporation). Gels were overlaid with 500 μl H14 media and cultured for 10 days before each assay unless otherwise described.
For mitochondrial activity, we slightly modified the method described previously (Morici et al., 2007). Briefly, cells were incubated with 2 μM MitoTracker® Orange CM-H2 TMRos (Invitrogen) for 1 hour and fixed with PFA as above. Cells were counterstained with Hoechst 33342 (Invitrogen), which is known also to bind to DNA stoichiometrically, then MitoTracker and Hoechst staining were measured by taking z-section images from top to bottom of the gels using confocal microscopy.
(§4) In each assay, one well, containing only lrECM, was made for background measurements. Glucose uptake measured by 2DG uptake, lactate production and MitoTracker staining were normalized using total DNA levels, and presented relative to that of control (either S1 or non-treated T4-2 cells).

T4-2 cells [4] = experiment: Lactate production assay in 3D lrECM; format: cell-based, human
Procedure: as §3
For lactate production, on day 9, conditioned-media were harvested to measure lactate remaining in the 200 μl of the gel (assuming equilibrium between medium and gel, C0 nmol/μl). […] After 24 hours, total culture medium was harvested for measurement of final lactate concentrations (C nmol/μl) and total volumes (V μl) of the conditioned-media, and the cells in gel were fixed with PFA as above. Concentration of lactate in each sample was measured using a lactate assay kit (BioVision). Net lactate production within 24 hours (N) was calculated as follows: N=C×(V+200)−C0×200. Fixed cells were stained with DRAQ5, to measure total level of DNA as a surrogate for number of cells, and the staining was measured as above.
as §4

T4-2 cells [5] = experiment: Glucose uptake assay (IRDye800CW-2DG) in 3D lrECM; format: cell-based, human
Procedure: as §3
For glucose uptake assay, cells were incubated with 1 μM of IRDye800CW-2DG (LI-COR Biosciences) for 1 hour, fixed within gels with 4% paraformaldehyde (PFA) in PBS for 30 min. and stained with DRAQ5 (1:10000 dilution), an infrared dye that binds stoichiometrically to DNA, for 30 min. Cells were extensively washed with PBS, then IRDye800-2DG uptake together with DRAQ5 staining were measured by using Odyssey Infrared Imaging System (LI-COR Biosciences).
as §4

T4-2 cells [6] = experiment: siRNA knockdown in T4-2 cells cultured in 3D-on top (3D-OT) lrECM; format: cell-based, human; conditions: 3 days
Procedure: For experiments that need to be done in shorter-term (e.g. cultures of siRNA-transfected cells or for live imaging), cells were seeded at 60,000 cells per cm2 on top (3D-OT) of lrECM gels overlaid with H14 medium containing 5% (v/v) lrECM. Cells were harvested after 3 days.
Predesigned siRNA duplexes targeting GLUT3, GFPT1, GFPT2 and OGT, as well as control siRNA were obtained from Ambion. The other siRNA duplexes were chemically synthesized and purchased from Hokkaido System Science. The sequences are as follows:
For transfection of each siRNA into T4-2 cells, Lipofectamine RNAi MAX (Invitrogen) was used, according to the manufacturer's instruction. Cells were trypsinized 36 hrs after transfection and cultured in 3D-OT lrECM for 3 days before harvest.

S1 cells = experiment: 3D lrECM culture of non-malignant S1 cells: acinar morphology and growth; format: cell-based, human; conditions: 2DG 4 mM, OGM 4 ng/ml
Procedure: as §1, §2
Pieces of lrECM gel containing cell colonies were suspended in approximately the same volume of phosphate buffered saline (PBS) and directly spread on glass slides. After brief air-drying, colonies were fixed with 3.7% paraformaldehyde (PFA) in PBS at room temperature (RT) for 10 min, washed with PBS containing 0.1 mM glycine, and permeabilized with 1:1 methanol/acetone at −20° C. for 10 min. […]

## CO[C@@H]1[C@@H]2OP(=O)(O)OC[C@H]2O[C@H]1n1c(Sc2ccc(Cl)cc2)nc2c(N)ncnc21 [ESCA, 8CPT-2′-OMe-cAMP]
[1]
  recovery of β1 integrin expression and Akt activity by supplementation: partially restored
Rap1
  Rap1 reactivation by supplementation: reactivated Rap1
T4-2 cells [2]; ESCA 20 μM
  rescue of the malignant (disorganized) phenotype by supplementation: loss of tissue polarity
T4-2 cells [2]; T4-2 cells treated with IA 20 μM or 1.75 mM glucose, ESCA 20 μM
  restoration of proliferation by supplementation: did not restore proliferation to the level of non-treated cultures

## CC(Sc1nc2ccccc2[nH]1)C(=O)N/N=C/c1cc(Br)ccc1O (centres unmarked) [KH7]
T4-2 cells [2]; T4-2 cells reverted in 1.75 mM glucose, then 5.5 mM glucose with KH7
  reactivation (disorganization, Rap1, β1 integrin and Akt) on raising glucose from 1.75 mM to 5.5 mM: almost completely abolished
T4-2 cells [2]; T4-2 cells
  phenotypic reversion of the malignant phenotype: do induce phenotypic reversion

## CC(=O)N[C@H]1[C@@H](OCc2ccccc2)O[C@H](CO)[C@H](O)[C@@H]1O [BADGP, Benzyl-2-acetamido-2-deoxy-α-D-galactopyranoside]
T4-2 cells [2]; T4-2 cells
  phenotypic reversion of the malignant phenotype: do induce phenotypic reversion; also recorded: induced phenotypic reversion

## [N-]=[N+]=CC(=O)OC[C@H](N)C(=O)O [AZS, Azaserine]
T4-2 cells [3]
  mitochondrial activity (oxidation): remained unaltered
T4-2 cells [4]
  lactate production: significantly down-regulated
T4-2 cells [5]
  glucose uptake: significantly down-regulated
[1]; T4-2 cells, Western blot
  levels and/or activities of EGFR, β1 integrin, Akt and MEK (oncogenic signaling): suppression of activation of oncogenic signaling
[1]; T4-2 cells, Azs 20 μM, DON 20 μM
  EGFR expression and activity: significantly down-regulated
T4-2 cells [2]; T4-2 cells
  phenotypic reversion of the malignant phenotype: do induce phenotypic reversion; also recorded: induced the repertoire of the reversion phenotype
  basal polarity / organized acinar structures: re-establishment of tissue polarity
  growth / proliferation (cell numbers at the colony mid-section, EdU incorporation): growth arrest

## C=C(OP(=O)(O)O)C(=O)O [PEP, phosphoenolpyruvate]
[1]
  recovery of β1 integrin expression and Akt activity by supplementation: partially recovered
Rap1
  Rap1 reactivation by supplementation: Rap1 reactivation
T4-2 cells [2]; ESCA 20 μM
  rescue of the malignant (disorganized) phenotype by supplementation: reproduced the disorganized structure

## GAPDH siRNA: chemically synthesized siRNA duplex targeting GAPDH, SEQ ID NO: 1 and SEQ ID NO: 2 (chain 1 GAGCCACAUCGCUCAGACA; chain 2 UGUCUGAGCGAUGUGGCUC; listed as RNA, chemistry not fully specified)
T4-2 cells [6]
  phenotype after siRNA knockdown (reversion): essentially reproduced the above results

## Tunicamycin [TM]
T4-2 cells [2]; T4-2 cells
  phenotypic reversion of the malignant phenotype: do not induce phenotypic reversion; also recorded: did not lead to phenotypic reversion
T4-2 cells [2]; T4-2 cells, increasing amounts of tunicamycin (data not shown)
  cell death: induced significant cell death

## sAC siRNA: chemically synthesized siRNA duplex targeting sAC, SEQ ID NO: 7 and SEQ ID NO: 8 (chain 1 AUGUAGCCUGGAGAUCCAUTT; chain 2 AUGGAUCUCCAGGCUACAUTT; sugars from the 5' end r19 d2, backbone not given here)
T4-2 cells [6]
  phenotype after siRNA knockdown (reversion): induced phenotypic reversion

## CC[C@H]1/C=C/C=C/C[C@@H](C)[C@H](O)[C@@](C)(O)C(=O)[C@@H](C)[C@H](O)[C@@H](C)C(=O)[C@@H](C)[C@H](O)[C@@H](C)/C=C/C(=O)O[C@@H]2[C@H](C)[C@H](CC1)O[C@]1(CC[C@H](C)[C@H](C[C@@H](C)O)O1)[C@H]2C [OGM, Oligomycin]
S1 cells
  acinar morphology, basal polarity and growth rate of non-malignant cells: lost basal tissue polarity
T4-2 cells [2]; T4-2 cells
  phenotypic reversion of the malignant phenotype: do not induce phenotypic reversion
  basal polarity / organized acinar structures: did not induce organized structures
  growth / proliferation (cell numbers at the colony mid-section, EdU incorporation): suppressing proliferation significantly
